Results: the supplement of paper PMC10307832

How the values were obtained:
Assay in all cases: relative viability (nuclei count vs DMSO), 5 days (fraction); higher = more cells survive
[1] = compound: C1COCCN1C2=NC(=NC3=C2OC4=C3C=CC=N4)C5=CC(=CC=C5)NC(=O)C6=CN=C(C=C6)N + COc1cccc2cc(-c3nc([C@H]4CC[C@H](C(=O)O)CC4)n4ncnc(N)c34)[nH]c12 [OSI-027] (partner 0.5 µM)
Outline: (§1)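 Values are medians from duplicate plates. Each reflects relative viability, defined as the nuclei count of treated wells over that of vehicle wells. Lung cancer cell lines in 1536-well plates were pin-tool dosed one day after seeding with one drug alone or with a fixed anchor-drug dose plus five library-drug doses (not always all listed) in √10 steps, then fixed, stained and imaged at 4× after 5 days.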

[2] = compound: C1COCCN1C2=NC(=NC3=C2OC4=C3C=CC=N4)C5=CC(=CC=C5)NC(=O)C6=CN=C(C=C6)N + N=C(N)NC(=N)NCCc1ccccc1 [Phenformin] (partner 250 µM)
Outline: as §1

SGI-1776 + Bortezomib = compound: CN1CCC(CNc2ccc3ncc(-c4cccc(OC(F)(F)F)c4)n3n2)CC1 [SGI-1776] + CC(C)C[C@H](NC(=O)[C@H](Cc1ccccc1)NC(=O)c1cnccn1)B(O)O [Bortezomib] (partner 0.002 µM)
Outline: as §1

Entinostat + Bortezomib = compound: Nc1ccccc1NC(=O)c1ccc(CNC(=O)OCc2cccnc2)cc1 [Entinostat] + CC(C)C[C@H](NC(=O)[C@H](Cc1ccccc1)NC(=O)c1cnccn1)B(O)O [Bortezomib] (partner 0.002 µM)
Outline: as §1

Cell Line	relative viability ([1]; first compound 0.02 µM)	relative viability ([1]; first compound 0.06325 µM)	relative viability ([1]; first compound 0.2 µM)	relative viability ([1]; first compound 0.6325 µM)	relative viability ([1]; first compound 2 µM)	relative viability ([2]; first compound 0.02 µM)	relative viability ([2]; first compound 0.06325 µM)	relative viability ([2]; first compound 0.2 µM)	relative viability ([2]; first compound 0.6325 µM)	relative viability ([2]; first compound 2 µM)	relative viability (SGI-1776 + Bortezomib; first compound 0.08 µM)	relative viability (SGI-1776 + Bortezomib; first compound 0.8 µM)	relative viability (SGI-1776 + Bortezomib; first compound 2.53 µM)	relative viability (SGI-1776 + Bortezomib; first compound 8 µM)	relative viability (Entinostat + Bortezomib; first compound 0.02 µM)	relative viability (Entinostat + Bortezomib; first compound 0.06325 µM)	relative viability (Entinostat + Bortezomib; first compound 0.2 µM)	relative viability (Entinostat + Bortezomib; first compound 0.6325 µM)	relative viability (Entinostat + Bortezomib; first compound 2 µM)
NCI-H1734	0.719	0.638	0.576	0.542	0.417	0.372	0.387	0.371	0.338	0.251	0.903	1.11	0.88	0.739	0.895	1.1	1.06	0.753	0.472
NCI-H1755	0.797	0.738	0.797	0.622	0.558	0.606	0.652	0.644	0.336	0.469	0.932	0.953	0.971	0.774	0.932	0.956	0.9	0.534	0.321
NCI-H1792	0.659	0.684	0.753	0.679	0.42	0.245	0.471	0.211	0.218	0.179	0.94	0.941	0.977	1.01	0.952	0.992	1.03	0.802	0.606
NCI-H1915	0.639	0.663	0.647	0.599	0.5	0.338	0.383	0.397	0.392	0.302	1.01	0.985	0.932	0.935	1.05	0.959	0.998	0.644	0.638
NCI-H1975	0.728	0.708	0.5	0.388	0.353	0.394	0.416	0.388	0.37	0.243	0.393	0.399	0.35	0.277	0.355	0.309	0.271	0.182	0.163
NCI-H1993	0.554	0.57	0.567	0.548	0.549	0.483	0.498	0.501	0.513	0.522	1.21	1.14	0.967	0.803	1.1	1.16	1	0.723	0.543
NCI-H2009	0.577	0.628	0.533	0.441	0.386	0.468	0.485	0.449	0.371	0.242	1.03	1.02	0.991	0.733	1.03	1.05	0.912	0.814	0.497
NCI-H2023	0.369	0.419	0.277	0.182	0.167	0.424	0.457	0.346	0.32	0.156	1.13	1.07	0.988	0.727	0.859	0.85	0.411	0.166	0.105
NCI-H2085	0.792	0.829	0.62	0.46	0.44	0.686	0.753	0.678	0.629	0.398	1.14	1.16	1	0.922	1.03	1.12	1.04	0.683	0.604
NCI-H2087	0.508	0.508	0.47	0.472	0.267	0.515	0.595	0.495	0.447	0.31	0.772	0.802	0.982	0.722	0.883	0.837	0.761	0.425	0.274
NCI-H2126	0.664	0.767	0.652	0.675	0.708	0.535	0.553	0.524	0.461	0.441	1.15	1.18	1.04	1.13	1.13	1.11	1.1	0.885	0.809
NCI-H2228	0.51	0.606	0.519	0.485	0.251	0.322	0.392	0.273	0.233	0.222	1.05	0.917	0.992	0.531	0.815	0.831	1.05	0.462	0.204
NCI-H2347	0.384	0.504	0.367	0.355	0.311	0.356	0.369	0.308	0.449	0.277	1.04	0.961	1.15	0.897	0.969	1.01	0.557	0.318	0.262
NCI-H2405	0.578	0.668	0.618	0.599	0.585	0.373	0.41	0.37	0.353	0.338	1.04	0.997	0.896	0.924	1.01	1.04	0.976	0.916	0.653
NCI-H3122	0.998	1.01	0.835	0.977	0.347	0.619	0.359	0.347	0.372	0.343	1.06	1.01	1.08	1.01	0.951	1.07	1.06	0.869	1.01
PC-3 [JPC-3]	0.849	0.839	0.697	0.704	0.54	0.485	0.491	0.453	0.469	0.443	0.867	0.806	0.845	0.687	0.853	0.814	0.824	0.409	0.508
PC-14	0.976	1.2	0.977	0.554	0.233	0.478	0.36	0.397	0.446	0.268	0.846	0.915	0.99	0.566	0.833	0.949	0.909	0.331	0.128
